Source: US10138233B2, “Imidazole compounds as modulators of FSHR and uses thereof” (Merck Patent GmbH, priority 2013, dated 2018)

Experiments:
[1] = target: T1, FSHR (Homo sapiens, UniProt P23945); experiment: EC50 of cyclic AMP production in CHO FSHR cells + EC20 FSH (Assay A); format: cell-based; settings: CHO-FSHR-LUC cells, in presence of EC20 FSH, cAMP HTRF, 1 h 37° C.
T1 construct: expressed in transfected cells; host or cells: CHO cells, clone Cho-FSHR-LUC-1-1-43
T1 sequence (P23945 18-695): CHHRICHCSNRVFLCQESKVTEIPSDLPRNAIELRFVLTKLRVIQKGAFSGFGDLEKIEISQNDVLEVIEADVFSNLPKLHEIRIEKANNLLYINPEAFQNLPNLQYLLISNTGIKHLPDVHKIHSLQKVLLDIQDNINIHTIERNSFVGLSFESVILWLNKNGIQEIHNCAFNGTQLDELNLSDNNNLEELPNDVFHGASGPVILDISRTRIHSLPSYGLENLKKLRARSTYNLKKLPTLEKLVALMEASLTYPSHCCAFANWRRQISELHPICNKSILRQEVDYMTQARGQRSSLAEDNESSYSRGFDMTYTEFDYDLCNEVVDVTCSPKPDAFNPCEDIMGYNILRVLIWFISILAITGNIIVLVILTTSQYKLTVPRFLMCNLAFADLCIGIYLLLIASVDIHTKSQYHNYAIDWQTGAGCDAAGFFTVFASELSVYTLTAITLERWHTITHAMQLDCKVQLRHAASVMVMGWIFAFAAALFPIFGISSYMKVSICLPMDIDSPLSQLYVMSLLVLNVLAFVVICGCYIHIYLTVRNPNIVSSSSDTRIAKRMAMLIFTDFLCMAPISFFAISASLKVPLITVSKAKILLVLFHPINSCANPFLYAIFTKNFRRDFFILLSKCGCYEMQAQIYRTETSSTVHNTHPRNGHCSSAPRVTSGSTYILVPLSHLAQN

[2] = target: T2, follicle-stimulating hormone (FSH) receptor (Rattus norvegicus, UniProt P20395); experiment: Rat Granulosa EC50 FSH (Assay B); format: cell-based; settings: rat granulosa cells, per Yanofsky et al. 2006
T2 construct: Rat Granulosa EC50 FSH (Assay B); endogenous in cells; host or cells: rat granulosa cells
T2 sequence (P20395 18-692): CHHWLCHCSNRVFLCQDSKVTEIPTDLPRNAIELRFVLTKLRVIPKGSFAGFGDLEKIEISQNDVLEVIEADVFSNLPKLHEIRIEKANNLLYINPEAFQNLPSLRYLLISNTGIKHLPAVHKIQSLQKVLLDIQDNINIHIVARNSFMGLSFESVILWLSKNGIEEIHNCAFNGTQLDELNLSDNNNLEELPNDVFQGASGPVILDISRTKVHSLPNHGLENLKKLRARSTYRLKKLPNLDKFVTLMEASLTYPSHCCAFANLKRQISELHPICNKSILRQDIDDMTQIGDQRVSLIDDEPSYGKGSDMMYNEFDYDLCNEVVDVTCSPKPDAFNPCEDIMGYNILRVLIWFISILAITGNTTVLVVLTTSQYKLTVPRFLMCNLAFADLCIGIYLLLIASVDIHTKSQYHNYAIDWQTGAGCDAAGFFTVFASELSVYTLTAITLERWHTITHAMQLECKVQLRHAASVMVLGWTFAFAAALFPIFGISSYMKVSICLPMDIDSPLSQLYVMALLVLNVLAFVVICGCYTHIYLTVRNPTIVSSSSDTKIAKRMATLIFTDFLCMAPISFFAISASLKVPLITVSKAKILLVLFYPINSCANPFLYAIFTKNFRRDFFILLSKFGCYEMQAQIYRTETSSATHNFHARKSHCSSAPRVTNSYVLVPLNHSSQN

Row | Compound | EC50 [1] | EC50 [2]
1 | [2H]C([2H])([2H])Oc1cc2c(cc1CC(C)C)-n1c(-c3ccsc3)nc(C(=O)N3CCOCC3(C)C)c1CC2 [Compound 41, (3,3-Dimethyl-morpholin-4-yl)-(8-isobutyl-7-methoxy-d3-1-thiophen-3-yl-4,5-dihydro-imidazo[1,5-a]quinolin-3-yl)-methanone] | < 100 nM | 1000 to 5000 nM
2 | COc1cc2c(cc1OC(C)C)-n1c(-c3ccc(F)s3)nc(C(=O)N3CCOCC3(C)C)c1CC2 [Compound 59] | < 100 nM | 100 to 1000 nM
3 | COc1cc2c(cc1OC(C)C)-n1c(-c3cc(Cl)cc(Cl)c3)nc(C(=O)N3CCOCC3(C)C)c1CC2 [Compound 110] | < 100 nM | 100 to 1000 nM
4 | COc1cc2c(cc1OC(C)C)-n1c(-c3cc(C)cs3)nc(C(=O)N3CCOCC3(C)C)c1CC2 [Compound 70] | < 100 nM | 1000 to 5000 nM
5 | COc1cc2c(cc1OC(C)C)-n1c(-c3cccs3)nc(C(=O)N3CCOCC3(C)C)c1CO2 [Compound 139, (3,3-Dimethyl-morpholin-4-yl)-(8-isopropoxy-7-methoxy-1-thiophen-2-yl-4H-5-oxa-2,9b-diaza-cyclopenta[a]naphthalen-3-yl)-methanone] | < 100 nM | 100 to 1000 nM
6 | COc1cc2c(cc1OC(C)C)-n1c(-c3ccsc3)nc(C(=O)N(C)C(C)(C)C)c1CO2 [Compound 135, 8-Isopropoxy-7-methoxy-1-thiophen-3-yl-4H-5-oxa-2,9b-diaza-cyclopenta[a]naphthalene-3-carboxylic acid tert-butyl-methyl-amide] | < 100 nM | > 5000 nM
7 | [2H]C([2H])([2H])Oc1cc2c(cc1CC(C)C)-n1c(-c3cccs3)nc(C(=O)N(C)C(C)(C)C)c1CC2 [Compound 53, 8-Isobutyl-7-methoxy-d3-1-thiophen-2-yl-4,5-dihydro-imidazo[1,5-a]quinoline-3-carboxylic acid tert-butyl-methyl-amide] | < 100 nM | 1000 to 5000 nM
8 | COc1cc2c(cc1OC(C)C)-n1c(C3=CCCC3)nc(C(=O)N3CCOCC3(C)C)c1CC2 [Compound 49] | 100 to 1000 nM | > 5000 nM
9 | COc1cc2c(cc1CC(C)C)-n1c(-c3ccc(F)s3)nc(C(=O)N3CCOCC3(C)C)c1CC2 [Compound 19, (3,3-Dimethyl-morpholin-4-yl)-[1-(5-fluoro-thiophen-2-yl)-8-isobutyl-7-methoxy-4,5-dihydro-imidazo[1,5-a]quinolin-3-yl]-methanone] | < 100 nM | 100 to 1000 nM
